Test results as given in the supplement of paper PMC10331698.
± gives the standard deviation of the averaged measurements.

Legend:
Assay in all cases: level (log10 ratio to DMSO vehicle control); higher = higher biomarker level / cell amount than vehicle control
Settings in all cases: in DMSO
[1] = compound: FC(F)(F)C(F)(F)C(F)(F)C(F)(F)C(F)(F)C(F)(F)C(F)(F)CCI [1-Iodo-1H,1H,2H,2H-perfluorononane]
Protocol: (§1)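 BioMAP Diversity Plus panel of 12 human primary cell co-culture systems (3C, 4H, LPS, SAg, BT, BF4T, BE3C, CASM3C, HDF3CGF, KF3CT, MyoF, Mphg). Compounds were added 1 h before stimulation and left for 24 h (MyoF 48 h; BT 72 h for soluble read-outs or 6 d for IgG). Biomarkers were read by ELISA, cytotoxicity by SRB, PBMC viability and proliferation by Alamar Blue. Each well value was divided by the mean of 8 DMSO control wells on the same plate and log10 transformed; duplicate blinded samples were tested at 4 concentrations.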

[2] = compound: CC(C)(C)C(=O)CC(=O)C(F)(F)C(F)(F)C(F)(F)F [(Heptafluorobutanoyl)pivaloylmethane]
Protocol: as §1

Perfluorooctanamidine = compound: N=C(N)C(F)(F)C(F)(F)C(F)(F)C(F)(F)C(F)(F)C(F)(F)C(F)(F)F [Perfluorooctanamidine]
Protocol: as §1

Perfluorooctanamide = compound: NC(=O)C(F)(F)C(F)(F)C(F)(F)C(F)(F)C(F)(F)C(F)(F)C(F)(F)F [Perfluorooctanamide]
Protocol: as §1

[3] = compound: O=P(O)(O)CCC(F)(F)C(F)(F)C(F)(F)C(F)(F)C(F)(F)C(F)(F)C(F)(F)C(F)(F)F [((Perfluorooctyl)ethyl)phosphonic acid]
Protocol: as §1

[4] = compound: O=S(=O)(O)C(F)(F)C(F)(F)C(F)(F)C(F)(F)F [Perfluorobutanesulfonic acid]
Protocol: as §1

1-(Perfluorohexyl)octane = compound: CCCCCCCCC(F)(F)C(F)(F)C(F)(F)C(F)(F)C(F)(F)C(F)(F)F [1-(Perfluorohexyl)octane]
Protocol: as §1

Test System | level (log10) ([1]; 6700 nM) | level (log10) ([1]; 20000 nM) | level (log10) ([2]; 6700 nM) | level (log10) ([2]; 20000 nM) | level (log10) ([2]; 60000 nM) | level (log10) (Perfluorooctanamidine; 6700 nM) | level (log10) (Perfluorooctanamidine; 20000 nM) | level (log10) (Perfluorooctanamidine; 60000 nM) | level (log10) (Perfluorooctanamide; 6700 nM) | level (log10) (Perfluorooctanamide; 20000 nM) | level (log10) (Perfluorooctanamide; 60000 nM) | level (log10) ([3]; 6700 nM) | level (log10) ([3]; 20000 nM) | level (log10) ([3]; 60000 nM) | level (log10) ([4]; 6700 nM) | level (log10) ([4]; 20000 nM) | level (log10) ([4]; 60000 nM) | level (log10) (1-(Perfluorohexyl)octane; 6700 nM) | level (log10) (1-(Perfluorohexyl)octane; 20000 nM)
lMphg:CD40 | -0.0065 ± 0.00071 | -0.0225 ± 0.028 | -0.0075 ± 0.0021 | 0.004 ± 0.034 | -0.017 ± 0.0014 | -0.016 ± 0.023 | -0.0145 ± 0.005 | -0.046 | -0.0285 ± 0.018 | -0.007 ± 0.014 | 0.045 ± 0.0085 | -0.015 ± 0.017 | -0.065 ± 0.017 | -0.037 ± 0.021 | -0.0015 ± 0.0064 | -0.0065 ± 0.0021 | 0.009 ± 0.0014 | -0.0185 ± 0.011 | -0.023 ± 0.021
lMphg:CD62E/E-Selectin | 0.016 ± 0.02 | 0.001 ± 0.0099 | -0.017 | -0.0085 ± 0.012 | -0.0525 ± 0.011 | 0.0065 ± 0.042 | 0.0655 ± 0.015 | 0.049 | 0.022 ± 0.048 | 0.0285 ± 0.043 | -0.0165 ± 0.07 | 0.011 ± 0.0014 | 0.027 ± 0.0085 | 0.113 ± 0.018 | 0.0405 ± 0.0035 | 0.041 ± 0.044 | 0.0215 ± 0.046 | 0.0205 ± 0.012 | -0.0145 ± 0.03
lMphg:CD69 | -0.0025 ± 0.023 | -0.053 ± 0.076 | -0.0145 ± 0.0021 | -0.0025 ± 0.0078 | 0.051 ± 0.011 | -0.048 ± 0.0028 | -0.052 ± 0.0085 | 0.029 | 0.0175 ± 0.018 | -0.005 ± 0.025 | -0.0825 ± 0.074 | -0.0125 ± 0.013 | -0.0425 ± 0.04 | 0.0275 ± 0.043 | 0.0035 ± 0.005 | -0.0195 ± 0.005 | -0.0525 ± 0.043 | -0.0265 ± 0.0078 | -0.0345 ± 0.015
lMphg:CD106/VCAM-1 | -0.009 ± 0.04 | -0.039 ± 0.075 | 0.0115 ± 0.037 | 0.001 ± 0.014 | -0.009 ± 0.0057 | -0.006 ± 0.0028 | -0.008 ± 0.0057 | -0.08 | -0.021 ± 0.0071 | 0.006 ± 0.0071 | 0.0435 ± 0.012 | -0.013 ± 0.016 | -0.0455 ± 0.018 | -0.055 ± 0.0014 | -0.004 ± 0.025 | -0.013 ± 0.018 | -0.0195 ± 0.0078 | -0.0105 ± 0.012 | -0.035 ± 0.017
lMphg:CXCL8/IL-8 | 0.007 ± 0.013 | 0.0695 ± 0.0078 | 0.002 ± 0.02 | 0.006 ± 0.034 | 0.014 ± 0.064 | 0.011 | 0.0425 ± 0.019 | 0.175 | 0.013 ± 0.028 | 0.0285 ± 0.012 | 0.031 ± 0.042 | -0.0105 ± 0.025 | 0.0115 ± 0.028 | 0.148 ± 0.084 | 0.022 ± 0.0028 | 0.06 ± 0.0085 | 0.183 ± 0.0099 | -0.0215 ± 0.0078 | 0.022 ± 0.02
lMphg:IL-1alpha | -0.012 ± 0.014 | 0.055 ± 0.045 | 0.0265 ± 0.042 | 0.0005 ± 0.0021 | 0.0175 ± 0.013 | -0.011 ± 0.024 | -0.004 ± 0.044 | 0.027 | 0.01 ± 0.034 | 0.0265 ± 0.054 | 0.04 ± 0.058 | -0.014 ± 0.0099 | -0.0245 ± 0.025 | 0.02 ± 0.0042 | 0.0315 ± 0.016 | -0.0055 ± 0.056 | 0.034 ± 0.031 | -0.0215 ± 0.013 | 0.0085 ± 0.074
lMphg:M-CSF | -0.023 ± 0.037 | -0.015 ± 0.0014 | -0.0265 ± 0.039 | -0.027 ± 0.051 | -0.0315 ± 0.032 | -0.0155 ± 0.016 | -0.0015 ± 0.0021 | -0.001 | 0.0175 ± 0.011 | -0.0055 ± 0.042 | 0.0085 ± 0.059 | -0.0235 ± 0.0064 | -0.039 ± 0.0057 | -0.0405 ± 0.0078 | 0.021 ± 0.028 | -0.0045 ± 0.074 | -0.0045 ± 0.07 | -0.0235 ± 0.021 | -0.0205 ± 0.036
lMphg:SRB | -0.002 ± 0.0071 | 0.0065 ± 0.005 | -0.001 ± 0.0057 | -0.006 ± 0.0028 | 0.008 ± 0.016 | -0.006 ± 0.016 | 0.004 ± 0.016 | 0.001 | -0.0015 ± 0.016 | -0.0145 ± 0.0021 | -0.0075 ± 0.011 | 0 ± 0.0071 | -0.0105 ± 0.0078 | -0.044 ± 0.0085 | 0.002 ± 0.013 | -0.0155 ± 0.011 | -0.0155 ± 0.0064 | 0.002 ± 0.0042 | 0 ± 0.0085
lMphg:SRB-Mphg | 0.001 ± 0.03 | 0.001 ± 0.011 | -0.0025 ± 0.0078 | -0.0125 ± 0.012 | 0.0035 ± 0.019 | 0.0145 ± 0.011 | 0.009 ± 0.014 | 0.007 | -0.0145 ± 0.021 | -0.01 ± 0.0071 | -0.016 ± 0.0057 | 0.0005 ± 0.015 | -0.0055 ± 0.00071 | -0.0515 ± 0.022 | 0.01 ± 0.018 | 0.0045 ± 0.015 | -0.0005 ± 0.012 | -0.007 ± 0.013 | 0.0305 ± 0.019
lMphg:sIL-10 | -0.0685 ± 0.00071 | -0.072 ± 0.021 | 0.024 ± 0.0099 | -0.0365 ± 0.061 | 0.0125 ± 0.032 | -0.051 ± 0.018 | -0.118 ± 0.0057 | -0.121 | -0.029 ± 0.0028 | 0.013 ± 0.042 | 0.008 ± 0.058 | -0.0215 ± 0.012 | -0.062 ± 0.017 | -0.263 ± 0.025 | 0.043 ± 0.099 | -0.0475 ± 0.032 | 0.0065 ± 0.049 | -0.0375 ± 0.056 | -0.036 ± 0.054
